# Source: US20090252814A1, “USE OF XENON FOR ORGAN PROTECTION” (priority 2005, published 2009)
# Legend:
# main organs = settings: xenon exposure (Natale et al 1998); cited from earlier work
# erythropoietin (EPO) [1] = assay: EPO RNA expression in neonatal rat brain (RT-PCR); format: in vivo, Sprague Dawley rats; settings: neonatal rat brains, 75% xenon 2 h, harvested 0-24 h after
# Protocol: Neonatal rats (7 days) Sprague Dawley rats were used. All procedures were approved by the Home Office.
# C=Rat hippocampal brain control stored in −80° C. 0=Rat hippocampal brain treated with xenon for 2 hrs, sacrificed immediately after and stored in −80° C. 2=Rat hippocampal brain treated with xenon for 2 hrs, sacrificed 2 hrs later and stored in −80° C. 4=Rat hippocampal brain treated with xenon for 2 hrs, sacrificed 4 hrs later and stored in −80° C. 8=Rat hippocampal brain treated with xenon for 2 hrs, sacrificed 8 hrs later and stored in −80° C. 24=Rat hippocampal brain treated with xenon for 2 hrs, sacrificed 24 hrs later and stored in −80° C. P2=Rat hippocampal brain positive control with ischaemia injury for 45 mins, harvested after 24 hrs, stored in −80° C.
# Total RNA was extracted from neonatal rat brains.
# Reverse transcription of the RNA in order to obtain the first-strand cDNA was carried out using techniques well known in the art. […]
# The resulting PCR amplification products were electrophoresed on a 1×TAE agarose gel in 1×TAE buffer and visualised using Fluor-S MultiImager BIORAD. […] As the level of fluorescence is approximately proportional to the amount of intercalated ethidium bromide, the abundance of amplified DNA within samples can be compared; in other words, the level of expression of a gene of interest can be determined. […]
# HIF-1α = HIF-1α expression in neonatal rat brain after xenon (immunohistochemistry and western blot); format: in vivo, Sprague Dawley rats
# Protocol: Studies were performed on Sprague Dawley, 7 day old rats. All procedures were approved by the Home Office.
# The rats were exposed to 75% xenon for two hours. The xenon gas was administered to the rats by inhalation. The brains of said rats were then harvested, as described below, between 0-24 hours after exposure to the xenon gas.
# Paraffin sections (4 μm) were dewaxed in xylene, rehydrated in a series of ethanol washes, and placed in distilled water before staining procedures. Slides were coated with 3-aminopropyl-tri-ethoxysylane.
# For detection of HIF isoforms, monoclonal mouse anti-human HIF-1α antibody (67; Novus Biologicals, Littleton, Colo.) and polyclonal rabbit anti-mouse HIF-2α antibodies (PM8 and PM9, obtained from two different rabbits immunised with a peptide containing amino acids 337 to 439 of mouse HIF-2) were used. PM8 and PM9 were provided by Prof. P H Maxwell, Renal Section, Imperial College London, Hammersmith Campus, Du Cane Road, London, W12 ONN. Specific staining of each HIF-isoform was confirmed in immunoblots by using in vitro transcribed and translated mouse HIF-1 and HIF-2 (TnT T7; Promega, Madison, Wis.) and homogenates of rat endothelial cells.
# For immunohistochemical analyses, antibody 67 was used at a dilution of 1:6000 and antibodies PM8 and PM9 were used at dilutions of 1:3000.
# Detection of bound antibodies was performed by using biotinylated secondary anti-mouse or anti-rabbit antibodies and a catalysed signal amplification system (Dako, Hamburg, Germany) based on the streptavidin-biotin-peroxidase reaction, according to the instructions provided by the manufacturer. Antigen retrieval was performed for 90 seconds in preheated Dako target retrieval solution, using a pressure cooker. All incubations were performed in a humidified chamber. Between incubations, specimens were washed two to four times in buffer (50 mM Tris-HCl, 300 mM NaCl, 0.1% Tween-20, pH 7.6). […]
# erythropoietin (EPO) [2] = assay: EPO protein expression in neonatal rat brain (western blot); format: in vivo, Sprague Dawley rats; settings: neonatal rat brains, 75% xenon 2 h, harvested 0-24 h after
# Protocol: Sprague Dawley, 7 day neonatal rats were used. All procedures were approved by the Home Office.
# The neonatal rats were exposed to 75% xenon for two hours. The gas was administered by gas inhalation. The brains of said rats were then harvested as described below between 0-24 hours after exposure to the xenon gas.
# The tissues were homogenised and western blots of neonatal rat brain samples were carried out as described in Example 1.
# The primary antibodies were anti-α-tubulin antibody, and monoclonal mouse anti-erythropoietin antibody.
# HIF-1α gene = assay: HIF-1α RNA expression in adult mice brains (RT-PCR); format: in vivo, C57BL/6J mice; settings: 75% xenon and 25% oxygen 2 h, harvested 0-72 h after
# Protocol: Studies were performed on 8- to 12-wk-old C57BL/6J mice (Jackson Labs, Bar Harbor, Me.) that were fed a standard laboratory diet. All procedures were approved by the Home Office.
# The mice were exposed to 75% xenon and 25% oxygen for two hours. The xenon gas was administered to the mice by inhalation. The brains of said adult mice were then harvested as described below between 0-72 hours after exposure to the xenon gas.
# Total RNA was extracted as described in Example 4. In addition RT-PCR was carried out as described in Example 4. The primers used for the PCR amplifications were: […]
# brain = settings: administered 4 hours after hypoxic-ischaemic injury, neonatal rats; cited from earlier work
# NMDA receptor = settings: 80% xenon, cultured hippocampal neurons; cited from earlier work
smiles,measurement,setting,value
[Xe] [xenon],toxic effects on main organs,main organs,does not induce significant toxic effects
same,EPO expression (RNA),erythropoietin (EPO) [1],time-dependent increase
same,expression of HIF-1α and HIF-1β in pyramidal cells in the hippocampus,"HIF-1α; 6 hours after exposure to 75% xenon, immunohistochemistry",induces expression
same,HIF-1α positive cells in cortex,"HIF-1α; 6 hrs after 2 h exposure to 75% xenon, immunohistochemistry",clearly detected
same,HIF-1α expression in the brain,"HIF-1α; 7 day old rats, 75% xenon 2 h, brains harvested 0-24 h after, western blot",time-dependent increase
same,expression of EPO protein,erythropoietin (EPO) [2],time-dependent increase
same,transcription of the HIF-1α gene,HIF-1α gene,does not modulate
same,neuroprotection by combination of xenon and hypothermia,brain,synergistic neuroprotection
same,reduction of NMDA-activated currents,NMDA receptor,up to 60%
